The source of these data is patent US20030224978A1, “Compounds and methods for modulating apoptosis” (McGill University, priority 1996, published 2003).

One data set addresses T1, chick N-cadherin (Gallus gallus, UniProt P10288).
T1 construct: expressed in transfected cells; host or cells: 3T3 fibroblasts
T1 sequence (P10288 165-912): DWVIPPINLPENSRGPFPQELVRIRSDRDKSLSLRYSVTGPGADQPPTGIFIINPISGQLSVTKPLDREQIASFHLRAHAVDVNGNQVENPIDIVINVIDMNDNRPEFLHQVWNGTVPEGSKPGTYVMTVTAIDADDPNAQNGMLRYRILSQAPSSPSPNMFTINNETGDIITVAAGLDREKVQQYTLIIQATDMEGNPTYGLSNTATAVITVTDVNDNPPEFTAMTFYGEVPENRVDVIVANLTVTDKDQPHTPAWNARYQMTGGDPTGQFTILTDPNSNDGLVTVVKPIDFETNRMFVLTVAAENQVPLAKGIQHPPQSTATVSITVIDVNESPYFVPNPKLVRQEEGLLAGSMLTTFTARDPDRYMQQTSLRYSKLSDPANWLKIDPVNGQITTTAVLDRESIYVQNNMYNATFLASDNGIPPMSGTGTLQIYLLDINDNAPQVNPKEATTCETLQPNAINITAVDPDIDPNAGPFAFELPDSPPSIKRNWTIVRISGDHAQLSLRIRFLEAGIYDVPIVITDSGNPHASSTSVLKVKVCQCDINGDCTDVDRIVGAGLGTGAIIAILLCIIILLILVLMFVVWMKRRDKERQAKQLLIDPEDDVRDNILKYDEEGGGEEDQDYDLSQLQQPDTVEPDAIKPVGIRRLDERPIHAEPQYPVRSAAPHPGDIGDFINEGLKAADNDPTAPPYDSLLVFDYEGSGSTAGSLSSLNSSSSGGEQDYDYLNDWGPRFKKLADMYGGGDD
Briefly: N-cadherin dependent neurite outgrowth of rat cerebellar neurons on N-cadherin expressing 3T3 cells (Example 14). Conditions: for inhibition at 125 µg/mL: 125 μg/mL; for inhibitory activity on N-cadherin dependent neurite outgrowth, in words: Tables 8 and 9, 250 or 125 μg/mL; for EC50: from dose-response curve. Type of data set: cell-based. The protocol: (§1) Cell culture and neurite outgrowth assays. Co-cultures of cerebellar neurons on monolayers of control 3T3 cells and monolayers of transfected 3T3 cells that express physiological levels of chick N-cadherin or human L1 were established as previously described (Williams et al., Neuron 13:583-594, 1994). In brief, 80,000 3T3 cells (control and transfected) were plated into individual chambers of an eight-chamber tissue culture slide coated with polylysine and fibronectin and cultured in DMEM/10% FCS. After 24 hours, when confluent monolayers had formed, the medium was removed and 3000 cerebellar neurons isolated from post-natal day 2-3 rats were plated into each well in SATO media (Doherty et al., Nature 343:464-466, 1990) supplemented with 2% FCS. All of the test peptides were added immediately before the neurons as a 2×stock prepared in SATO/2% FCS. The co-cultures were maintained for 16-18 hours, at which time they were fixed and immunostained for GAP-43 which is present only in the neurons and delineates the neuritic processes. The mean length of the longest neurite per cell was measured for 150-200 neurons sampled in replicate cultures as previously described (Williams et al., Neuron 13:583-594, 1994). […] Dose-response curves were evaluated and the EC50 values determined.
Effects of cyclic HAV peptides on N-cadherin function. The ability of N-Ac-CHAVC-NH2 (SEQ ID NO:10; compound 1) to inhibit neurite outgrowth was initially tested. This cyclic peptide has the cadherin CAR sequence (HAV) and no flanking amino acid residues. Neurons were cultured on confluent monolayers of control (untransfected) and N-cadherin expressing 3T3 cells for 16-18 hours. The cells were then fixed and the length of the longest neurite on 150-200 neurons was determined by standard assay, as described above. FIG. 24 gives the mean neurite length in a representative experiment where cerebellar neurons have been cultured over control and N-cadherin expressing cells. In the absence of peptide, the mean length of the longest neurite per cell was approximately double on the N-cadherin expressing cells, as compared to 3T3 cells. This response requires N-cadherin function in both the neuron and transfected fibroblast.

In a further data set the target is L1 (Homo sapiens, UniProt P32004). Briefly: L1 response: neurite outgrowth of rat cerebellar neurons on L1 expressing 3T3 cells (Example 14). Conditions: 100 μg/mL, concentrations that substantially inhibited the N-cadherin response. Type of data set: cell-based. Details: expressed in transfected cells; host or cells: 3T3 cells (stably transfected). As for the experimental part:
FIG. 26 is a bar graph illustrating the effects of the cyclic peptides N-Ac-CHAVDC-NH2 (SEQ ID NO:11), N-Ac-CHAVDIC-NH2 (SEQ ID NO:62) and N-Ac-[…]-NH2 (SEQ ID NO:63) on L1 function. Cerebellar neurons were cultured on monolayers of control 3T3 cells and L1 expressing 3T3 cells for 16-18 hours in control media (unshaded) or control media supplemented with peptides N-Ac-CHAVDC-NH2 (SEQ ID NO:11; diagonal rising right), N-Ac-CHAVDIC-NH2 (SEQ ID NO:62); diagonal cross hatch) or N-Ac-[…]-NH2 (SEQ ID NO:63; diagonal rising left) at a concentration of 100 μg/mL. The cultures were then fixed and neurite outgrowth determined by measuring the length of the longest neurite from a total of 150-200 neurons sampled in replicate cultures for each experimental condition. […] The results are pooled from three independent experiments, and the bars show the s.e.m.
as §1, with “The co-cultures were maintained for 16-18 hours, at which time they were fixed and immunostained for GAP-43 which is present only in the neurons and delineates the neuritic processes.” left out, “determined. […]” for “determined.”

Data set [1] is described as follows: in vitro. Conditions: human. Format: cell-based. The protocol: (§2) N-Ac-CHAVC-NH2 (SEQ ID NO:10) and the control peptide N-Ac-CHGVC-NH2 (SEQ ID NO:20) were evaluated for possible cytotoxic effects on human microvascular endothelial (HMVEC; Clonetics), human umbilical vein endothelial (HUVEC; ATCC #CRL-1730), IAFp2 (human fibroblast cell line; Institute Armand-Frapier, Montreal, Quebec), WI-38 (human fibroblast cell line; ATCC #CCL-75), MDA-MB231 (human breast cancer cell line; ATCC #HTB-26), and PC-3 (human prostate cancer cell line; ATCC #CRL-1435) cells utilizing the MTT assay (Plumb et al., Cancer Res. 49:4435-4440, 1989). Neither of the peptides was cytotoxic at concentrations up to and including 100 μM. Similarly, neither of the peptides was capable of inhibiting the proliferation of the above cell lines at concentrations up to 100 μM, as judged by ^3H-thymidine incorporation assays.

The subject of data set [2] is angiogenesis in chick embryonic chorioallantoic membranes. Nature of the data set: Chick chorioallantoic membrane angiogenesis assay. Type of data set: in vivo. Conditions: for percent inhibition of angiogenesis: 24 hours. As for the experimental part: The chick chorioallantoic membrane assay was used to assess the effects of cyclic peptides on angiogenesis (Iruela-Arispe et al., Molecular Biology of the Cell 6:327-343, 1995). Cyclic peptides were embedded in a mesh composed of vitrogen at concentrations of 3, 17, and 33 μg/mesh. The meshes were then applied to 12-day-old chick embryonic chorioallantoic membranes. After 24 hours, the effects of the peptides on angiogenesis were assessed by computer assisted morphometric analysis.
For each concentration of cyclic peptide, the percent inhibition of angiogenesis (relative to the level of angiogenesis in the absence of cyclic peptide) is provided. Assays were performed in the presence (+) or absence (−) of […] VEGF. For example, the cyclic peptide N-Ac-CHAVC-NH2 (SEQ ID NO:10) inhibited angiogenesis by 46%, 51%, and 51% at concentrations of 3, 17, and 33 μg/mesh, respectively.

A short description of data set [3]: in vitro. Conditions: human. Type of data set: cell-based. The protocol:
as §2
This is another data set of the same source.

Data set [4] in a line: in vitro. Type of data set: cell-based. Conditions: human. As for the experimental part: as §2
The source holds these as a separate data set.

A short description of data set [5]: in vitro. Type of data set: cell-based. Conditions: human. The protocol:
as §2
This is another data set of the same source.

For data set [6], the system named is bovine pulmonary artery endothelial cells. Briefly: Disruption of bovine endothelial cell adhesion. Type of data set: cell-based. Conditions: 500 μg/ml, 30 minutes. As for the experimental part:
For use within one such assay, bovine pulmonary artery endothelial cells may be harvested by sterile ablation and digestion in 0.1% collagenase (type II; Worthington Enzymes, Freehold, N.J.). Cells may be maintained in Dulbecco's minimum essential medium supplemented with 10% fetal calf serum and 1% antibiotic-antimycotic at 37° C. in 7% CO2 in air. Cultures may be passaged weekly in trypsin-EDTA and seeded onto tissue culture plastic at 20,000 cells/cm^2. Endothelial cultures may be used at 1 week in culture, which is approximately 3 days after culture confluency is established. The cells may be seeded onto coverslips and treated (e.g., for 30 minutes) with modulating agent or a control compound at, for example, 500 μg/ml and then fixed with 1% paraformaldehyde. As noted above, disruption of cell adhesion may be determined visually within 24 hours, by observing retraction of the cells from one another. This assay evaluates the effect of a modulating agent on N-cadherin mediated cell adhesion.
Bovine pulmonary artery endothelial cells were harvested by sterile ablation and digestion in 0.1% collagenase (type II; Worthington Enzymes, Freehold, N.J.). Cells were maintained in Dulbecco's […] essential medium (Clonetics, San Diego, Calif.) supplemented with 10% fetal calf serum (Atlantic Biologicals, Nor cross, Ga.) and 1% antibiotic-antimycotic at 37° C. in 7% CO2 in air. Cultures were passaged weekly in trypsin-EDTA (Gibco, Grand Island, N.Y.) and seeded onto tissue culture plastic at 20,000 cells/cm^2 for all experiments. Endothelial cultures were used at 1 week in culture, which is approximately 3 days after culture confluency was established. The cells used in all protocols were between 4th passage and 10th passage. The cells were seeded onto coverslips and treated 30 minutes with N-Ac-CHAVC-NH2 (SEQ ID NO:10) or N-Ac-CHGVC-NH2 (SEQ ID NO:20) at 500 μg/ml and then fixed with 1% paraformaldehyde.

SMILES strings stand for the structures. Entries after “also recorded” stand apart in the source; their conditions may differ. Positions of bridges follow the written chain, without caps; N, C: chain ends. Residues, ends and D or L forms follow the SMILES beside them.

L1, sequence (P32004 20-1257): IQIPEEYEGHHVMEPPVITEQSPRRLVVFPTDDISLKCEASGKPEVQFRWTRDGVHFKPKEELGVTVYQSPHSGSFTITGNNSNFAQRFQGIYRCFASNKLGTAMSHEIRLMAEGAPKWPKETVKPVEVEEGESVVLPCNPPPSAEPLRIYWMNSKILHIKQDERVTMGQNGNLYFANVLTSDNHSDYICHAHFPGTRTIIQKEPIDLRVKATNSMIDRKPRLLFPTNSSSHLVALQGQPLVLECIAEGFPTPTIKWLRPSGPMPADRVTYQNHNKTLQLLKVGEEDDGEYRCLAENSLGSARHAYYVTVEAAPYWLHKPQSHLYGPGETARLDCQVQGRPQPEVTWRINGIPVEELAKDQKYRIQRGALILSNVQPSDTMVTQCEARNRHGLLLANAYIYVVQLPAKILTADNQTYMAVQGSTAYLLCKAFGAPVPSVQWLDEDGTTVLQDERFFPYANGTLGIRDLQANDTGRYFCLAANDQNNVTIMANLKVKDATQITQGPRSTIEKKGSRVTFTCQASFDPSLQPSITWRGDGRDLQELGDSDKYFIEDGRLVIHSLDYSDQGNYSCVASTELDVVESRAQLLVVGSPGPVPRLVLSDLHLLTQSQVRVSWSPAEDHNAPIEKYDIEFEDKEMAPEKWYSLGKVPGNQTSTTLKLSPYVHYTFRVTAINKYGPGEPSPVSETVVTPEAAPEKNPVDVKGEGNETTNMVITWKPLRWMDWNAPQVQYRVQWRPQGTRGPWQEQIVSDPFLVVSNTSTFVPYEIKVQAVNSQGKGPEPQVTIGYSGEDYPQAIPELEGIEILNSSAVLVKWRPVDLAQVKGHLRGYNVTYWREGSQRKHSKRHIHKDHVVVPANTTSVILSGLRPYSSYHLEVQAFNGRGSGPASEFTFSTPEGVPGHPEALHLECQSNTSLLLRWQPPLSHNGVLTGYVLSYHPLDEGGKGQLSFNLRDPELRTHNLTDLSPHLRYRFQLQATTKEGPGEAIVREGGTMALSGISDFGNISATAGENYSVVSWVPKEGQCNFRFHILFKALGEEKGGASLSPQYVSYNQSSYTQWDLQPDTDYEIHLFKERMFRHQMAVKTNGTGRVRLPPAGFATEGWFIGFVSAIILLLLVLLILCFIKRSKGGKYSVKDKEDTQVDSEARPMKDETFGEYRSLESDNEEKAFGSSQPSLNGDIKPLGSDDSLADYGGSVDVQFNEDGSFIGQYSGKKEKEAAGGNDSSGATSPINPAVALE

For `CC[C@H](C)[C@@H]1NC(=O)[C@H](CC(=O)O)NC(=O)[C@H](C(C)C)NC(=O)[C@H](C)NC(=O)[C@H](Cc2c[nH]cn2)NC(=O)[C@@H](NC(C)=O)CSSC[C@@H](C(N)=O)NC(=O)[C@H](CC(N)=O)NC1=O` (Ac-CHAVDINC-NH2; disulfide 1-8), on chick N-cadherin (NIH3T3, 16-18 hours), the inhibition at 125 µg/mL turned out to be 62 ± 3.4%. Also, on chick N-cadherin, the “inhibitory activity on N-cadherin dependent neurite outgrowth, in words” value (“inhibitory activity … in words” for short) is listed as “only a slight loss in activity; also recorded: potent inhibitors” and the EC50 worked out at 70 µM. For the same compound, on L1, the “effect on L1 response (neurite outgrowth over L1 expressing 3T3 cells)” value is reported as “did not interfere with the ability of neurons to extend neurites over 3T3 cells expressing L1; also recorded: not inhibited”.
As to `CC(=O)N[C@H]1CSSC[C@@H](C(N)=O)NC(=O)[C@H](CO)NC(=O)[C@H](CO)NC(=O)[C@H](C(C)C)NC(=O)[C@H](C)NC(=O)[C@H](Cc2c[nH]cn2)NC(=O)[C@H](CO)NC1=O` (Ac-CSHAVSSC-NH2; disulfide 1-8), the inhibition at 250 µg/mL on chick N-cadherin (NIH3T3, 250 μg/mL, 16-18 hours) was -12.6 ± 6.4%. For the same compound, the “reduction in inhibitory activity on flanking HAV with E-cadherin amino acids” value at chick N-cadherin (Table 8, 250 μg/mL) is recorded as “complete”. In addition, the IC50 in “in vitro [1]”, in “in vitro [3]”, in the data set “in vitro [4]” and in the data set “in vitro [5]” was over 100 µM each time. For the same compound, the “percent inhibition of angiogenesis” value is on record as 1% in data set [2] (3 μg/mesh, absence (−) of 0.01 mM VEGF); −3% in data set [2] (3 μg/mesh, presence (+) of 0.01 mM VEGF); −3% in data set [2] (17 μg/mesh, absence (−) of 0.01 mM VEGF); 12% in data set [2] (17 μg/mesh, presence (+) of 0.01 mM VEGF); 17% in data set [2] (33 μg/mesh, absence (−) of 0.01 mM VEGF); 7% in data set [2] (33 μg/mesh, presence (+) of 0.01 mM VEGF). In addition, in data set [2] (3, 17, and 33 μg/mesh), the “inhibition of angiogenesis, in words” value is “relatively inactive”. For the same compound, the “effect on endothelial cell monolayer / morphology” value in data set [6] is “disrupted the endothelial cell monolayer; also recorded: retracted from one another and round up”.
As for `CC(=O)N[C@H]1CSSC[C@@H](C(N)=O)NC(=O)[C@H](CC(=O)O)NC(=O)[C@H](C(C)C)NC(=O)[C@H](C)NC(=O)[C@H](Cc2c[nH]cn2)NC1=O` [N-Ac-CHAVDC-NH2] (Ac-CHAVDC-NH2; disulfide 1-6), the inhibition at 33 µg/mL against chick N-cadherin (NIH3T3, 33 μg/mL) turned out to be 28.5%. For the same compound, the inhibition at 125 µg/mL at chick N-cadherin (NIH3T3, 16-18 hours) was 77.1 ± 8.4%. The “inhibitory activity … in words” value against chick N-cadherin is listed as “dramatically increased the inhibitory activity; also recorded: potent inhibitors of neurite outgrowth”. Besides, at L1, the “effect on L1 response (neurite outgrowth over L1 expressing 3T3 cells)” value is given as “did not interfere with the ability of neurons to extend neurites over 3T3 cells expressing L1; also recorded: not inhibited”.
Take `CC[C@H](C)[C@@H]1NC(=O)[C@H](CC(=O)O)NC(=O)[C@H](C(C)C)NC(=O)[C@H](C)NC(=O)[C@H](Cc2c[nH]cn2)NC(=O)[C@@H](NC(C)=O)CSSC[C@@H](C(N)=O)NC1=O` [N-Ac-CHAVDIC-NH2] (Ac-CHAVDIC-NH2; disulfide 1-7): on chick N-cadherin (NIH3T3, 16-18 hours), the inhibition at 125 µg/mL amounted to 88.3 ± 7.5%. For the same compound, on chick N-cadherin, the “inhibitory activity … in words” value is listed as “further increased activity; also recorded: potent inhibitors” and the EC50 came out at 60 µM. Further, the “effect on L1 response (neurite outgrowth over L1 expressing 3T3 cells)” value on L1 is listed as “did not interfere with the ability of neurons to extend neurites over 3T3 cells expressing L1; also recorded: not inhibited”.
